Our source for the EC50 values is US8143257B2, “Substituted phenols as active agents inhibiting VEGF production” (PTC Therapeutics, Inc., priority 2004, dated 2012).

One assay deals with hypoxia-inducible endogenous VEGF expression. The assay can be described thus: Assay to evaluate effect on hypoxia-inducible endogenous VEGF expression (VEGF ELISA, HeLa cells). In kind it is cell-based. The following applies: HeLa cells cultured 24-48 hours under hypoxic conditions (1% O2, 5% CO2); VEGF in conditioned media by ELISA; read-out: ELISA EC50 (effective concentration required to lower the amount of VEGF translation by 50%). An outline of the steps:
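HeLa cells held 24–48 h in hypoxia (1% O2, 5% CO2, balance N2) with compound, e.g. seven concentrations. Secreted VEGF in conditioned medium quantified by ELISA against a standard curve; EC50 from percent inhibition, maximal inhibition set as 100%. Parallel Cell Titer Glo run under identical conditions gives CC50.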
With `Cc1ccc(OC(=O)N2C(C)CCCC2C)c(Br)c1` (stereo not shown) [2,6-Dimethyl-piperidine-1-carboxylic acid 2-bromo-4-methyl-phenyl ester], the EC50 was more than 30 µM.
Same read-out and setting: the result for `Cc1ccc(OC(=O)N2CCCCC2C)c(Br)c1` (stereo not shown) [2-Methyl-piperidine-1-carboxylic acid 2-bromo-4-methyl-phenyl ester] reads more than 30 µM.

The assay is the same for the next values; noted with them: Homo sapiens, HeLa, read-out: ELISA EC50 (effective concentration required to lower the amount of VEGF translation by 50%).
Take `CN1CCN(C(=O)Oc2cc(Cl)c(Cl)cc2Cl)CC1` [4-Methyl-piperazine-1-carboxylic acid 2,4,5-trichloro-phenyl ester]: the EC50 is more than 30 µM.
With `CN(C)C(=O)Oc1ccc2cc(Br)ccc2c1` [Dimethyl-carbamic acid 6-bromo-naphthalen-2-yl ester], the EC50 was more than 10 µM.
`CN1CCN(C(=O)Oc2c(Cl)cc(Cl)cc2Cl)CC1` [4-Methyl-piperazine-1-carboxylic acid 2,4,6-trichloro-phenyl ester]: the EC50 turned out to be 14.2 µM.

Still in this assay, the particulars now being: Homo sapiens; HeLa cells cultured 24-48 hours under hypoxic conditions (1% O2, 5% CO2); VEGF in conditioned media by ELISA; read-out: ELISA EC50 (effective concentration required to lower the amount of VEGF translation by 50%).
For the compound `Cc1ccc2cc(OC(=O)N3CCc4ccccc43)ccc2n1` [2,3-Dihydro-indole-1-carboxylic acid 2-methyl-quinolin-6-yl ester], the EC50 is more than 30 µM.
Regarding `CC1CC(C)CN(C(=O)Oc2cc(Cl)c(Cl)cc2Cl)C1` (stereo not shown) [3,5-Dimethyl-piperidine-1-carboxylic acid 2,4,5-trichloro-phenyl ester], the EC50 came to 11.2 µM.
Same read-out and setting: the result for `Cc1ccc(OC(=O)N2CC(C)CC(C)C2)c(Br)c1` (stereo not shown) [3,5-Dimethyl-piperidine-1-carboxylic acid 2-bromo-4-methyl-phenyl ester] reads more than 30 µM; that for `O=C(Oc1cc2ccccc2cn1)N1CCc2ccccc21` [2,3-Dihydro-indole-1-carboxylic acid isoquinolin-3-yl ester], more than 30 µM; that for `O=C(NCC1CCCCC1)Oc1ccc2cc(Br)ccc2c1Br` [Cyclohexylmethyl-carbamic acid 1,6-dibromo-naphthalen-2-yl ester], more than 30 µM.
Still for that read-out and setting: the result for `CC1CCCCN1C(=O)Oc1cc2ccccc2cn1` (stereo not shown) [2-Methyl-piperidine-1-carboxylic acid isoquinolin-3-yl ester] reads more than 30 µM; that for `Cc1ccc(OC(=O)N2CCC(Cc3ccccc3)CC2)c(Br)c1` [4-Benzyl-piperidine-1-carboxylic acid 2-bromo-4-methyl-phenyl ester], more than 30 µM; that for `O=C(Oc1ccc2ccccc2c1Br)N1CCOCC1` [Morpholine-4-carboxylic acid 1-bromo-naphthalen-2-yl ester], 0.999 µM.
Still for that read-out and setting: the result for `O=C(Oc1c(Cl)cc(Cl)cc1Cl)N1CCCCC1` [Piperidine-1-carboxylic acid 2,4,6-trichloro-phenyl ester] reads more than 30 µM.
For the compound `O=C(Nc1ccc2ccccc2c1Cl)N1CCC(C(O)(c2ccccc2)c2ccccc2)CC1` [4-(Hydroxy-diphenyl-methyl)-piperidine-1-carboxylic acid (1-chloro-naphthalen-2-yl)-amide], the EC50 was 0.794 µM.
Still for that read-out and setting: under `O=C(Oc1ccc2ccccc2c1Br)N1CCc2ccccc2C1` [3,4-Dihydro-1H-isoquinoline-2-carboxylic acid 1-bromo-naphthalen-2-yl ester] stands 0.174 µM; under `O=C(Nc1ccc2ccccc2c1)N1CCCCC1` [Piperidine-1-carboxylic acid naphthalen-2-ylamide], more than 10 µM; under `O=C(Oc1cc2ccccc2cn1)N1CCCC1` [Pyrrolidine-1-carboxylic acid isoquinolin-3-yl ester], more than 30 µM.
On the same count and under the same terms, under `CC(=O)c1c(OC(=O)N2CCCCC2C)ccc2ccccc12` (stereo not shown) [2-Methyl-piperidine-1-carboxylic acid 1-acetyl-naphthalen-2-yl ester] stands more than 30 µM.
